Source: US20050154032A1, “Methods of using zonisamide as an adjunctive therapy for partial seizures” (Eisai Co., Ltd, priority 2004, published 2005)

Legend:
[1] = cited from earlier work; for hyperammonemia as adverse event: literature
[2] = human, in vivo
From the text: The pharmacovigilance data that were collected, reviewed and analyzed provided the following information in respect of the incidence of hyperammonemia. A total of 4 cases fulfilled the criteria of potential hyperammonemia cases. These cases were reviewed in detail for evaluation of possible safety signals. Two US cases were reported as either high ammonia levels or increased ammonia. Two Japanese cases were reported as hyperammonemia.
Of these, two (2) cases (both ZON1000262 and ZON1000346) had strong confounding factors and seem to-be unrelated to zonisamide, but the possibility of zonisamide involvement cannot be completely excluded. The two cases of hyperammonemia originated from Japan and both involved adult patients. Both cases were serious and described as life-threatening. […]
Estimates of exposure, based upon retail and mail order prescriptions, indicate that the number of unique patients taking zonisamide capsules in the U.S. is about 37,276 (total prescriptions per year/average number of prescriptions per patient per year less a calculated percentage decrease based on estimated annual dropouts) in the time between approval in 2000 and December 2002. […] Similarly, the incidences of NMS estimated herein are unlikely to be higher than calculated. Based on the exposure data and number of hyperammonemia cases, the incidence of hyperammonemia is calculated to be about […].

sodium channels = settings: in vitro; cited from earlier work
T-type Ca^2+ currents = settings: in vitro; cited from earlier work
[3] = system: GABA/benzodiazepine receptor ionophore complex; settings: in vitro; cited from earlier work
[4] = system: cultured mouse spinal cord neurons; settings: 10-30 μg/mL; cited from earlier work
rat hippocampal slices = settings: 10-30 μg/mL; cited from earlier work
[5] = system: dopaminergic and serotonergic neurotransmission; settings: in vivo microdialysis; cited from earlier work
[6] = upon reaching a stable dose or following dosage adjustment; cited from earlier work
hepatic enzyme = settings: cited from earlier work
carbonic anhydrase = settings: fraction of acetazolamide inhibition; cited from earlier work

Structure (SMILES): NC(=O)N1c2ccccc2C=Cc2ccccc21 [carbamazepine]
- hyperammonemia as adverse event [1]: known to cause hyperammonemia

Structure (SMILES): CCCC(CCC)C(=O)O [valproate]
- hyperammonemia as adverse event [1]: known to cause hyperammonemia
- cases of hyperammonemia associated with the drug ([1]; since 1979 (O'Neil et al. 2002)): more than 30 cases

Structure (SMILES): NS(=O)(=O)Cc1noc2ccccc12 [zonisamide, 1,2-benzisoxazole-3-methanesulfonamide]
- cases fulfilling the criteria of potential hyperammonemia cases [2]: 4 cases
- incidence of hyperammonemia [2]: about 1:1,222,453
- effect on sodium channels (sodium channels): blocks sodium channels
- effect on voltage-dependent, transient inward currents (T-type Ca2+ currents) (T-type Ca^2+ currents): reduces
- binding to GABA/benzodiazepine receptor ionophore complex [3]: binds to the GABA/benzodiazepine receptor ionophore complex in an allosteric fashion
- postsynaptic GABA or glutamate responses [4]: without affecting
- synaptically-driven electrical activity [4]: suppresses
- neuronal or glial uptake of [3H]-GABA (rat hippocampal slices): without affecting
- dopaminergic and serotonergic neurotransmission [5]: facilitates
- time required to achieve steady-state levels [6]: up to two weeks
- hepatic enzyme induction (hepatic enzyme): not known to be a hepatic enzyme inducer
- carbonic anhydrase inhibition compared to acetazolamide (carbonic anhydrase): 1/50
